Here are results for six compounds from patent US12458614B2, “Therapeutic agents for improved mobility and cognitive function and for treating neurodegenerative diseases and lysosomal storage disorders” (priority 2017, dated 2025).

For series [1], the system named is patients with downbeat nystagmus. Nature of the series: Case studies, downbeat nystagmus. It counts as in vivo, human. The conditions noted are these: downbeat nystagmus Patients 1 (10 mg twice daily, four weeks) and 2.
Series [2] concerns patient with frontotemporal dementia with parkinsonism. Kind of series: Case study, frontotemporal dementia with parkinsonism. The conditions noted are these: treatment with L-Dopa and Ropinirol. Format: in vivo, human. The source says:
After approximately one month of acetyl-leucine treatment, medication was stopped and the patient was re-examined 13 days later.

The subject of series [3] is patient with corticobasal syndrome. Nature of the series: Case study, corticobasal syndrome. It counts as in vivo, human. The settings on record: treatment with L-Dopa. As for the experimental part:
Gait analysis was performed before treatment commenced.

The test system of series [4] is patients with progressive supranuclear palsy. Nature of the series: Case studies, progressive supranuclear palsy. It counts as in vivo, human. The conditions noted are these: individual PSP patients 1 to 4. As to the method: After 27 days of acetyl-leucine treatment, medication was stopped and the patient was re-examined 60 days later. […] Gait analysis was performed before treatment commenced. After 17 days of treatment, medication was stopped and the patient was re-examined 4 days later. […] Gait analysis was performed before treatment commenced. After three weeks of treatment, medication was stopped and the patient was re-examined.

The subject of series [5] is patients with multiple system atrophy Parkinson type (MSA-P). Nature of the series: Case studies, multiple system atrophy Parkinson type. Format: in vivo, human. The conditions noted are these: MSA-P Patient 3. The source says:
Medication was stopped. […] The patient evaluated after one month on acetyl-DL-leucine. […] Episodes of mental confusion completely disappeared. The patient's cognitive structure seemed much clearer and straighter. […] The patient's spouse supported continuing the medication.

For series [6], the system named is patient with Lewy Body dementia. Kind of series: Case study, Lewy Body dementia. It counts as in vivo, human. The settings on record: Levodopa 100 mg 4× daily and Quetiapin 25 mg at night. As for the experimental part:
The patient started taking acetyl-leucine (3 g/day for one week; 5 g/day thereafter) and was evaluated after four weeks. […] Medication was reduced to 3 g/day, and the patient was instructed to stop medication about two weeks later.

Series [7] deals with person with balance disorder/senile gait disorder. Kind of series: Case study Example 23. It counts as in vivo, human. The settings on record: treatment with L-Dopa.
The test system of series [8] is patient with progressive gait disorder. Kind of series: Case study Example 26, quantitative gait analysis. It counts as in vivo, human. The conditions noted are these: treatment with L-Dopa.
The subject of series [9] is patients with multiple system atrophy Parkinson type (MSA-P). Nature of the series: Case studies, multiple system atrophy Parkinson type. It counts as in vivo, human. The conditions noted are these: MSA-P Patient 1, 100/25 mg 3× daily.
The subject of series [10] is patients with amyotrophic lateral sclerosis (ALS). Kind of series: Case studies, amyotrophic lateral sclerosis. It counts as in vivo, human. The settings on record: ALS Patient 1. The source says: The results were documented by video.
The test system of series [11] is rat model of an acute unilateral labyrinthectomy. The settings on record: acute unilateral labyrinthectomy (Gunther 2015); cited from earlier work.

“Also recorded” adds a separate entry of the source.

`Nc1ccncc1` [4-aminopyridine]: the “Benefit of prior medication” value in series [1] is “did not give rise to any benefit”; in [1] (listed as Fampyra®), “did not benefit”.

Turning to `N[C@@H](Cc1ccc(O)c(O)c1)C(=O)O` [L-Dopa], the “Response to prior medication” value is listed as “little improvement” in [2]; “no improvement” in [3]; “improved the symptomatology” in [6]; “no improvement” in series [7]; “No improvement” in series [8]. The Levodopa response result in [4] is recorded as “little improvement”; in [4] (listed as levodopa), “no levodopa response; also recorded: slight levodopa response”; in [9], “discreet Levodopa response”. In series [5], the “Tolerability of Levodopa therapy” value is “suspended due to side effects”.

With `OCCOCCN1CCN(C2=Nc3ccccc3Sc3ccccc32)CC1` [Quetiapin], in series [6], the “Response to prior medication” value is “improved the symptomatology”.

With `Nc1nc2ccc(OC(F)(F)F)cc2s1` [Riluzol], the “Clinical symptomatology under prior medication” value in [10] is recorded as “remained unchanged”.

In the case of `CCCN(CCC)CCc1cccc2c1CC(=O)N2` [Ropinirol], the “Response to prior medication” value in series [2] is “little improvement”.

With `CC(=O)N[C@@H](CC(C)C)C(=O)O` [acetyl-L-leucine], the postural compensation result in series [11] is “significant effect”.
